This passage reports inhibition results from PMC6934184, “Selective DNA-PKcs inhibition extends the therapeutic index of localized radiotherapy and chemotherapy” (The Journal of Clinical Investigation, 2019).

SMILES strings stand for the structures.

In this assay the target is T1, IRAK1 (Homo sapiens, UniProt P51617).
T1 construct: purchased Thermo Fisher Scientific (Life Technologies) SelectScreen
Kind of assay: SelectScreen Adapta. Format: biochemical. The essentials:
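SelectScreen broad panel; activity (Z'LYTE, Adapta) plus binding formats. ATP: Km app for CSF1R Z'LYTE; 10 for CAMK1 Adapta. Readout = % per kinase.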

T1 sequence (P51617 whole entry): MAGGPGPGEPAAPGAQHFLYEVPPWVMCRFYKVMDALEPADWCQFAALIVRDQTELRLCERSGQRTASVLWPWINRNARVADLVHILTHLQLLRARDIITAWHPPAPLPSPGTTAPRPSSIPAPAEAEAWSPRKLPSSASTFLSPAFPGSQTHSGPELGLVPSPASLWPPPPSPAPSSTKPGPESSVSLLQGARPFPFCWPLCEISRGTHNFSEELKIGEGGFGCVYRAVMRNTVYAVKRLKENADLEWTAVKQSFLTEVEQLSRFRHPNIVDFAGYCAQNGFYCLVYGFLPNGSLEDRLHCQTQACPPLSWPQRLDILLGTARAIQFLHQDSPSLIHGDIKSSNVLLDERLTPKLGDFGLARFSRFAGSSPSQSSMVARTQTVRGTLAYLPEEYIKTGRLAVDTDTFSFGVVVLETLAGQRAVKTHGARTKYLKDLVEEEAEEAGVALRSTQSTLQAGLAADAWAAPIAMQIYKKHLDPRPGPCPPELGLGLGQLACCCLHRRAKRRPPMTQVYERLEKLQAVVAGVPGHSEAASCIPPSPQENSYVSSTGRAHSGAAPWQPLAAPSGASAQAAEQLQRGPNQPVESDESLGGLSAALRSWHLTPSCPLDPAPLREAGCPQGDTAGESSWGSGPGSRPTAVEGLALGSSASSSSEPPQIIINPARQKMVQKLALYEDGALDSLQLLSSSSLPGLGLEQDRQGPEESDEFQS

`CN(C(=O)CN1CCOCC1)c1ccc2sc3c(-c4cccc5c(=O)cc(N6CC7CCC(C6)O7)oc45)cccc3c2c1` [NU5455] yielded an inhibition at 1 µM of 4%.
